Data: PubChem BioAssay AID2060510 (Molecular Pharmacology Branch, DTP, NCI, 2025)
pIC50: −log10 of the molar value. Each block holds one compound with its values, some of them ahead of it.

System: 439559-082-T-J2-PDC spheroids viability
Experiment: Anticancer human tumor 439559-082-T-J2-PDC patient-derived colon adenocarcinoma cell line growth inhibition [GQUAD]
Details: for pIC50: curve of first compound; for viability, T/C: stronger effect = lower value
From the text: DNA G-quadruplex Stabilizer Agents in Combinations in Complex Spheroids
A high-throughput screen of multi-cell type tumor spheroids was designed to identify active combinations of DNA G-quadruplex stabilizer agents and targeted small molecules. Complex spheroids include a stromal component modeled by human endothelial cells (HUVEC) and fibroblasts modeled by human mesenchymal stem cells (MSCs). The concentration ranges selected for each drug and investigational agent were based upon clinically achievable concentrations if the clinical Cmax of the agent was known.
Compounds. The drugs and investigational agents: pidnarulex (CX-5461; NSC782164), APTO-253 (NSC789042), BRACO-19 (NSC847499), peposertib (NSC802822), ceralasertib (NSC780249), elimusertib (NSC800525), camonsertib (NSC841442), AZD-1390 (NSC803789), olaparib (NSC753686), talazoparib (NSC767125), ART-558 (NSC835418), sotorasib (NSC818433), MRTX-1133 (NSC836407), SN-38 (NSC673596), topotecan (NSC609699), etoposide (NSC141540), doxorubicin (NSC123127), gemcitabine (NSC613327), 5-fluorouracil (NSC19893), paclitaxel (NSC125973), vemurafenib (NSC761431), panobinostat (NSC761190), R-306465 (JNJ-16241199; NSC773264), adavosertib (NSC754352), TP-3654 (NSC805149), carboplatin (NSC241240), KSQ-4279 (NSC840948), and staurosporine (NSC755774) were obtained from the National Cancer Institute (NCI) Developmental Therapeutics Program Chemical Repository (34). The FDA-approved anticancer drug set is available from the NCI Developmental Therapeutics Program. […] The stock solutions were prepared in dimethyl sulfoxide (DMSO, Sigma-Aldrich, St. Louis, MO, cat. D2650) at 800-fold the tested concentration and stored at -70 degrees C prior to their use. All drugs and investigational agents were tested over a range starting from a high concentration at or near the clinical Cmax and decreasing in half-log increments. If the clinical Cmax for an agent had not been determined, the highest concentration tested was 10 microM.
2.3 Cell Culture. All cells were maintained in an incubator at 37 degrees C and 5% CO2 with 95% humidity. The PDC lines were cultured according to standard operating procedures established by the NCI PDMR. All PDCs were thawed and cultured in Matrigel-coated flasks prepared with a working solution of 1X Ham's F-12 nutrient mix, without supplementation (Invitrogen, cat. 11765054), 100 U/mL penicillin-streptomycin (Invitrogen, cat. 15140122), and 2.5% Matrigel (Corning Inc., cat. 354248) for the first three passages. The 857933-349-R-J2-PDC line was cultured in 6C/Colon 1B media, which includes advanced DMEM/F-12 (Thermo Fisher Scientific, cat. 12634028), 10 mM HEPES (Thermo Fisher Scientific, cat. 15630080), 1X GlutaMAX supplement (Thermo Fisher Scientific, cat. 35050061), 0.1 mg/mL primocin (InvivoGen, cat. ant-pm-2), 10% defined fetal bovine serum, heat inactivated (HyClone Laboratories Inc., cat. SH30070.03HI), 50% L-WRN conditioned media (ATCC, cat. CRL-3276), 1.25 mM N-Acetyl-L-cysteine (Sigma-Aldrich, cat. A9165), 10 mM nicotinamide (Sigma-Aldrich, cat. N0636), 1X B-27 supplement (Thermo Fisher Scientific, cat. 17504044), 1X N-2 supplement (Thermo Fisher Scientific, cat. 17502048), 10 microM Y-27632 dihydrochloride (Tocris Bioscience, cat. 1254), and 50 ng/mL human EGF recombinant protein (Thermo Fisher Scientific, cat. PHG0311). The 485176-168-R4-J1-PDC line was cultured in Panc media, which includes all 6C/Colon 1B media components plus 100 ng/mL human FGF-10 (Thermo Fisher Scientific, cat. 100-26), 500 nM SB-431542 (Selleckchem, cat. S1067), and gastrin (Tocris, cat. 3006).
[…]

[1] = second compound 0.0316 µM, first compound 0.0316 µM
[2] = second compound 0.0316 µM, first compound 0.1 µM
[3] = second compound 0.0316 µM, first compound 0.316 µM
[4] = second compound 0.0316 µM, first compound 1 µM
[5] = second compound 0.0316 µM, first compound 3.16 µM
[6] = second compound 0.0316 µM, first compound 10 µM
[7] = second compound 0.1 µM, first compound 0.0316 µM
[8] = second compound 0.1 µM, first compound 0.1 µM
[9] = second compound 0.1 µM, first compound 0.316 µM
[10] = second compound 0.1 µM, first compound 1 µM
[11] = second compound 0.1 µM, first compound 3.16 µM
[12] = second compound 0.1 µM, first compound 10 µM
[13] = second compound 0.316 µM, first compound 0.0316 µM
[14] = second compound 0.316 µM, first compound 0.1 µM
[15] = second compound 0.316 µM, first compound 0.316 µM
[16] = second compound 0.316 µM, first compound 1 µM
[17] = second compound 0.316 µM, first compound 3.16 µM
[18] = second compound 0.316 µM, first compound 10 µM
[19] = second compound 1 µM, first compound 0.0316 µM
[20] = second compound 1 µM, first compound 0.1 µM
[21] = second compound 1 µM, first compound 0.316 µM
[22] = second compound 1 µM, first compound 1 µM
[23] = second compound 1 µM, first compound 3.16 µM
[24] = second compound 1 µM, first compound 10 µM
[25] = second compound 3.16 µM, first compound 0.0316 µM
[26] = second compound 3.16 µM, first compound 0.1 µM
[27] = second compound 3.16 µM, first compound 0.316 µM
[28] = second compound 3.16 µM, first compound 1 µM
[29] = second compound 3.16 µM, first compound 3.16 µM
[30] = second compound 3.16 µM, first compound 10 µM
[31] = second compound 10 µM, first compound 0.0316 µM
[32] = second compound 10 µM, first compound 0.1 µM
[33] = second compound 10 µM, first compound 0.316 µM
[34] = second compound 10 µM, first compound 1 µM
[35] = second compound 10 µM, first compound 3.16 µM
[36] = second compound 10 µM, first compound 10 µM
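Note: spheroids exposed to the agents for 7 days before readout.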
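Throughout, for viability, T/C: percent of luminescence signal in DMSO vehicle wells taken as 100% viability.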

Compound: COc1ccc([C@@H](O)c2cc(-c3ncnc4cc(N5CCOCC5)ccc34)c(F)cc2Cl)nn1 + Cc1[nH]c2ccc(F)cc2c1-c1nc2c3cccnc3c3ncccc3c2[nH]1
pIC50 (second compound 0.0316 µM): < 5.00
pIC50 (second compound 0.1 µM): < 5.00
pIC50 (second compound 0.316 µM): < 5.00
pIC50 (second compound 1 µM): < 5.00
pIC50 (second compound 3.16 µM): < 5.00
pIC50 (second compound 10 µM): < 5.00
viability, T/C [1]: 97.1%
viability, T/C [2]: 98%
viability, T/C [3]: 87.8%
viability, T/C [4]: 98.1%
viability, T/C [5]: 85%
viability, T/C [6]: 95.5%
viability, T/C [7]: 111%
viability, T/C [8]: 99.5%
viability, T/C [9]: 89%
viability, T/C [10]: 93.3%
viability, T/C [11]: 98%
viability, T/C [12]: 88.5%
viability, T/C [13]: 106%
viability, T/C [14]: 93.2%
viability, T/C [15]: 92.1%
viability, T/C [16]: 86.9%
viability, T/C [17]: 83.7%
viability, T/C [18]: 75.9%
viability, T/C [19]: 99.9%
viability, T/C [20]: 101%
viability, T/C [21]: 90.5%
viability, T/C [22]: 92.6%
viability, T/C [23]: 85.8%
viability, T/C [24]: 75.6%
viability, T/C [25]: 73.1%
viability, T/C [26]: 85.1%
viability, T/C [27]: 83.2%
viability, T/C [28]: 69%
viability, T/C [29]: 69.3%
viability, T/C [30]: 77.4%
viability, T/C [31]: 84.9%
viability, T/C [32]: 93.9%
viability, T/C [33]: 83.7%
viability, T/C [34]: 82%
viability, T/C [35]: 74.4%
viability, T/C [36]: 80.8%

Compound: C#Cc1c(F)ccc2cc(O)cc(-c3ncc4c(N5CC6CCC(C5)N6)nc(OCC56CCCN5CC(F)C6)nc4c3F)c12 (stereo not drawn) + CN(C)c1ccc(Nc2c3ccc(NC(=O)CCN4CCCC4)cc3nc3cc(NC(=O)CCN4CCCC4)ccc23)cc1
pIC50 (second compound 0.0316 µM): < 5.00
pIC50 (second compound 0.1 µM): 5.41
pIC50 (second compound 0.316 µM): 5.16
pIC50 (second compound 1 µM): < 5.00
pIC50 (second compound 3.16 µM): 5.43
pIC50 (second compound 10 µM): 5.50
viability, T/C [1]: 83.6%
viability, T/C [2]: 70.7%
viability, T/C [3]: 66%
viability, T/C [4]: 60.1%
viability, T/C [5]: 56.1%
viability, T/C [6]: 49.1%
viability, T/C [7]: 94%
viability, T/C [8]: 68.5%
viability, T/C [9]: 73.1%
viability, T/C [10]: 58.1%
viability, T/C [11]: 54%
viability, T/C [12]: 42.6%
viability, T/C [13]: 79.3%
viability, T/C [14]: 82.8%
viability, T/C [15]: 62.2%
viability, T/C [16]: 62%
viability, T/C [17]: 55.5%
viability, T/C [18]: 47.6%
viability, T/C [19]: 91.5%
viability, T/C [20]: 73.2%
viability, T/C [21]: 64.6%
viability, T/C [22]: 55.4%
viability, T/C [23]: 61.8%
viability, T/C [24]: 48.5%
viability, T/C [25]: 81.9%
viability, T/C [26]: 75.3%
viability, T/C [27]: 69.1%
viability, T/C [28]: 52.4%
viability, T/C [29]: 55.2%
viability, T/C [30]: 43.4%
viability, T/C [31]: 84.4%
viability, T/C [32]: 77.7%
viability, T/C [33]: 62.5%
viability, T/C [34]: 54.7%
viability, T/C [35]: 56.4%
viability, T/C [36]: 40.7%

pIC50 (second compound 0.0316 µM): 6.05
pIC50 (second compound 0.1 µM): 6.23
pIC50 (second compound 0.316 µM): 6.44
pIC50 (second compound 1 µM): 6.47
pIC50 (second compound 3.16 µM): 6.56
pIC50 (second compound 10 µM): 6.87
Compound: CC1COCCN1c1cc(C2(O)CC3CCC(C2)O3)c2cnn(-c3ccn[nH]3)c2n1 (stereo not drawn) + Cc1cnc(CNC(=O)c2c(=O)c3ccc(N4CCCN(C)CC4)nc3n3c2sc2ccccc23)cn1
viability, T/C [1]: 84.9%
viability, T/C [2]: 85.1%
viability, T/C [3]: 66.8%
viability, T/C [4]: 47.8%
viability, T/C [5]: 38.4%
viability, T/C [6]: 30.4%
viability, T/C [7]: 84.4%
viability, T/C [8]: 77.6%
viability, T/C [9]: 57.6%
viability, T/C [10]: 43.8%
viability, T/C [11]: 34.6%
viability, T/C [12]: 33.2%
viability, T/C [13]: 82.5%
viability, T/C [14]: 68.7%
viability, T/C [15]: 54.3%
viability, T/C [16]: 34.3%
viability, T/C [17]: 37.9%
viability, T/C [18]: 31.3%
viability, T/C [19]: 71.4%
viability, T/C [20]: 68.2%
viability, T/C [21]: 49.6%
viability, T/C [22]: 36.5%
viability, T/C [23]: 28.8%
viability, T/C [24]: 26.6%
viability, T/C [25]: 65.5%
viability, T/C [26]: 57.8%
viability, T/C [27]: 49.9%
viability, T/C [28]: 34.6%
viability, T/C [29]: 25.2%
viability, T/C [30]: 27.3%
viability, T/C [31]: 65.6%
viability, T/C [32]: 50.5%
viability, T/C [33]: 44.5%
viability, T/C [34]: 32.8%
viability, T/C [35]: 27.6%
viability, T/C [36]: 21.2%

pIC50 (second compound 0.0316 µM): < 5.00
pIC50 (second compound 0.1 µM): < 5.00
pIC50 (second compound 0.316 µM): < 5.00
pIC50 (second compound 1 µM): < 5.00
pIC50 (second compound 3.16 µM): < 5.00
pIC50 (second compound 10 µM): < 5.00
Compound: Cc1cccc(N(C)C(=O)C2C(O)CCN2c2nc(C)cc(C(F)(F)F)c2C#N)c1 (stereo not drawn) + Cc1cnc(CNC(=O)c2c(=O)c3ccc(N4CCCN(C)CC4)nc3n3c2sc2ccccc23)cn1
viability, T/C [1]: 101%
viability, T/C [2]: 95.6%
viability, T/C [3]: 82.5%
viability, T/C [4]: 99%
viability, T/C [5]: 95.2%
viability, T/C [6]: 101%
viability, T/C [7]: 117%
viability, T/C [8]: 93.5%
viability, T/C [9]: 90.2%
viability, T/C [10]: 85.4%
viability, T/C [11]: 93.3%
viability, T/C [12]: 92.6%
viability, T/C [13]: 90.8%
viability, T/C [14]: 86.3%
viability, T/C [15]: 79.3%
viability, T/C [16]: 82.2%
viability, T/C [17]: 92.2%
viability, T/C [18]: 84.3%
viability, T/C [19]: 83.1%
viability, T/C [20]: 81.2%
viability, T/C [21]: 74.2%
viability, T/C [22]: 76.3%
viability, T/C [23]: 80.5%
viability, T/C [24]: 74.8%
viability, T/C [25]: 73.4%
viability, T/C [26]: 72.1%
viability, T/C [27]: 71.9%
viability, T/C [28]: 69.3%
viability, T/C [29]: 72.7%
viability, T/C [30]: 66.3%
viability, T/C [31]: 72.1%
viability, T/C [32]: 70.2%
viability, T/C [33]: 68.5%
viability, T/C [34]: 67.7%
viability, T/C [35]: 72.5%
viability, T/C [36]: 63%
